In patent US12655171B2, “Compounds for activating invariant natural killer T-cells and methods of use in eliminating inflammatory senescent cells” (Deciduous Therapeutics, Inc., priority 2021, dated 2026):

Test system: human iTCR
Test: In vitro activation of human iTCR through Jurkat reporter cell line (JiNKT, GFP under NFkB promoter) with drug-loaded BWSTIM cells
Format: cell-based
Conditions: BWSTIM loaded 4 hours, co-culture with JiNKT 18 to 24 hours; FIG. 1
Method: In order to determine the human iTCR activation potential induced by the compounds described herein, a jurkat cell line (JiNKT) was transfected with the human iTCR, and GFP under the NFkB promoter (cell line licensed from the Medical University of Vienna). A BWS147 cell line (BWSTIM) was also transfected with CD80 and CD1d to act as the antigen-presenting cell.
(§1) DCD molecules or α-GalCer were both dissolved in DMSO at a 5 mg/mL stock solution. BWSTIM cells were loaded with DCD molecules or α-GalCer at varying concentrations for 4 hours at 37° C. at a concentration of 20 k cells/well in 200 μL of media in a u-bottom 96 well dish. BWSTIM cells were washed 2× with media, then incubated with JiNKT cells at a concentration of 80 k cells/well in a u-bottom 96 well dish. Cells were co-cultured for 18 to 24 hours. The percentage of cells expressing high levels of GFP was measured through flow cytometry (after gating out the mCD45+ BWSTIM cells).
A jurkat cell line (JiNKT) was transfected with the human iTCR, and GFP under the NFkB promoter. A BWS147 cell line (BWSTIM) was also transfected with CD80 and CD1d to act as the antigen-presenting cell. A mouse iNKT hybridoma cell line (DN3.2) was also used as the iNKT. […]
as §1, with “GVK” for “DCD”, “compounds” for “DCD molecules or α-GalCer at varying concentrations”, “for” for “for 18 to”, “cytometry. 1 μg/mL of molecule GVK1a, GVK1b, GVK1c, or GVK1f was incubated with BWSTIM+JiNKT, and compared to α-GalCer.” for “cytometry (after gating out the mCD45+ BWSTIM cells).”

Row | EC50 of the dose response based on percentage GFP+ cells, compared to α-GalCer | SMILES
1 | lower EC50s compared to α-GalCer | CCCCCCCCCCCCCC[C@@H](O)[C@@H](O)[C@H](COC1OC(CO)C(O)C(O)C1O)NC(=O)CCCCCCCCCCC1CCOC1 (stereo partly drawn) [DCD-121]
2 | lower EC50s compared to α-GalCer | CCCCCCCCCCCCCC[C@@H](O)[C@@H](O)[C@H](COC1OC(CO)C(O)C(O)C1O)NC(=O)CCCCCCCCCOC1CCS(=O)(=O)CC1 (stereo partly drawn) [DCD-138]
3 | lower EC50s compared to α-GalCer | CCCCCCCCCCCCCC[C@@H](O)[C@@H](O)[C@H](COC1OC(CO)C(O)C(O)C1O)NC(=O)CCCCCCCCCCC1CCOCC1 (stereo partly drawn) [DCD-122]
4 | lower EC50s compared to α-GalCer | CCCCCCCCCCCCCC[C@@H](O)[C@@H](O)[C@H](COC1OC(CO)C(O)C(O)C1O)NC(=O)CCCCCCCCCCC1CCS(=O)(=O)CC1 (stereo partly drawn) [DCD-127]
5 | lower EC50s compared to α-GalCer | CCCCCCCCCCCCCC[C@@H](O)[C@@H](O)[C@H](COC1OC(CO)C(O)C(O)C1O)NC(=O)CCCCCCCCCCC12C3C4C5C3C1C5C42 (stereo partly drawn) [DCD-114]
6 | lower EC50s compared to α-GalCer | CCCCCCCCCCCCCC[C@@H](O)[C@@H](O)[C@H](COC1OC(CO)C(O)C(O)C1O)NC(=O)CCCCCCCCCCC1COC1 (stereo partly drawn) [DCD-118]
7 | lower EC50s compared to α-GalCer | CCCCCCCCCCCCCC[C@@H](O)[C@@H](O)[C@H](COC1OC(CO)C(O)C(O)C1O)NC(=O)CCCCCCCCCCN1CCOCC1.Cl (stereo partly drawn) [DCD-130]
8 | lower EC50s compared to α-GalCer | CCCCCCCCCCCCCC[C@@H](O)[C@@H](O)[C@H](COC1OC(CO)C(O)C(O)C1O)NC(=O)CCCCCCCCCCCC12CC(F)(C1)C2 (stereo partly drawn) [DCD-113]
9 | lower EC50s compared to α-GalCer | CCCCCCCCCCCCCC[C@@H](O)[C@@H](O)[C@H](COC1OC(CO)C(O)C(O)C1O)NC(=O)CCCCCCCCCCN1CCSCC1.Cl (stereo partly drawn) [DCD-133]
10 | lower EC50s compared to α-GalCer | CCCCCCCCCCCCCC[C@@H](O)[C@@H](O)[C@H](COC1OC(CO)C(O)C(O)C1O)NC(=O)CCCCCCCCCCCC12C3C4C5C3C1C5C42 (stereo partly drawn) [DCD-103]
11 | lower EC50s compared to α-GalCer | CCCCCCCCCCCCCC[C@@H](O)[C@@H](O)[C@H](COC1OC(CO)C(O)C(O)C1O)NC(=O)CCCCCCCCCCS(=O)(=O)C(C)C (stereo partly drawn) [DCD-137]
12 | lower EC50s compared to α-GalCer | CCCCCCCCCCCCCC[C@@H](O)[C@@H](O)[C@H](COC1OC(CO)C(O)C(O)C1O)NC(=O)CCCCCCCCCCC1(C)COC1 (stereo partly drawn) [DCD-119]
13 | lower EC50s compared to α-GalCer | CCCCCCCCCCCCCC[C@@H](O)[C@@H](O)[C@H](COC1OC(CO)C(O)C(O)C1O)NC(=O)CCCCCCCCCCN1CCS(=O)(=O)CC1 (stereo partly drawn) [DCD-136]
14 | lower EC50s compared to α-GalCer | CCCCCCCCCCCCCC[C@@H](O)[C@@H](O)[C@H](COC1OC(CO)C(O)C(O)C1O)NC(=O)CCCCCCCCCOC1CCOCC1 (stereo partly drawn) [DCD-139]

More lines, now with the values behind:

Row | SMILES | EC50 of the dose response based on percentage GFP+ cells, compared to α-GalCer
15 | CCCCCCCCCCCCCC[C@@H](O)[C@@H](O)[C@H](COC1OC(CO)C(O)C(O)C1O)NC(=O)CCCCCCCCCCCCCCCCCCCCCC12CC(F)(C1)C2 (stereo partly drawn) [DCD-151] | lower EC50s compared to α-GalCer
16 | CCCCCCCCCCCCCC[C@@H](O)[C@@H](O)[C@H](COC1OC(CO)C(O)C(O)C1O)NC(=O)CCCCCCCCCCCCCCCCCCCCCC1COC1 (stereo partly drawn) [DCD-150] | lower EC50s compared to α-GalCer
17 | CCCCCCCCCCCCCC[C@@H](O)[C@@H](O)[C@H](COC1OC(CO)C(O)C(O)C1O)NC(=O)CCCCCCCCCCCCCCCCCCCCCCC12CC(F)(C1)C2 (stereo partly drawn) [DCD-148] | lower EC50s compared to α-GalCer
18 | CCCCCCCCCCCCCC[C@@H](O)[C@@H](O)[C@H](COC1OC(CO)C(O)C(O)C1O)NC(=O)CCCCCCOCCCC1CCOCC1 (stereo partly drawn) [DCD-143] | lower EC50s compared to α-GalCer
19 | CCCCCCCCCCCCCC[C@@H](O)[C@@H](O)[C@H](COC1OC(CO)C(O)C(O)C1O)NC(=O)CCCCCCCCOCC1CCOCC1 (stereo partly drawn) [DCD-141] | lower EC50s compared to α-GalCer
20 | CCCCCCCCCCCCCC[C@@H](O)[C@@H](O)[C@H](COC1OC(CO)C(O)C(O)C1O)NC(=O)CCCCCOCCCCC1CCOCC1 (stereo partly drawn) [DCD-144] | lower EC50s compared to α-GalCer
21 | CCCCCCCCCCCCCC[C@@H](O)[C@@H](O)[C@H](COC1OC(CO)C(O)C(O)C1O)NC(=O)CCCCCCCOCCC1CCOCC1 (stereo partly drawn) [DCD-140] | lower EC50s compared to α-GalCer
22 | CCCCCCCCCCCCCC[C@@H](O)[C@@H](O)[C@H](COC1OC(CO)C(O)C(O)C1O)NC(=O)CCCCCCCCCCCCCCCCCCCCCCC1COC1 (stereo partly drawn) [DCD-149] | lower EC50s compared to α-GalCer
23 | CCCCCCCCCCCCCC[C@@H](O)[C@@H](O)[C@H](COC1OC(CO)C(O)C(O)C1O)NC(=O)CCCCCCCCCCC1CCN(C(=O)OC(C)(C)C)C1 (stereo partly drawn) [DCD-128] | lower EC50s compared to α-GalCer
24 | CCCCCCCCCCCCCC[C@@H](O)[C@@H](O)[C@H](COC1OC(CO)C(O)C(O)C1O)NC(=O)CCCCCCCCCCC1CN(C(=O)OC(C)(C)C)C1 (stereo partly drawn) [DCD-125] | lower EC50s compared to α-GalCer
25 | CCCCCCCCCCCCCC[C@@H](O)[C@@H](O)[C@H](COC1OC(CO)C(O)C(O)C1O)n1cc(CCCCCCN(CCCCCCC)CCCCCCC)nn1 (stereo partly drawn) [DCD-104] | lower EC50s compared to α-GalCer

Same assay, conditions: ranking among tested compounds, at the lowest concentration

Row | SMILES | % GFP+
26 | CCCCCCCCCCCCCC[C@@H](O)[C@@H](O)[C@H](COC1OC(CO)C(O)C(O)C1O)NC(=O)CCCCCCCCCCC1CCS(=O)(=O)CC1 (stereo partly drawn) [DCD-127] | highest % GFP+ at the lowest concentration

Test system: serum IFNγ
Test: In vivo serum IFNγ (ELISA) in C57BL/6J mice
Conditions: 2 μg I.P.; twenty hours post-injection; FIG. 4A
Method: In order to determine the expansion induced by the molecules described herein, molecules were injected into C57BL/6J mice. Serum IFNγ levels and the expansion of iNKT cells within splenocytes was measured 4 days post-IP injection.
Eight weeks old C57BL/6J mice were injected (I.P.) with 2 μg of α-GalCer or DCD molecules. Molecules were either dissolved in DMSO at a 5 mg/mL stock solution, or formulated into liposomes through thin-film rehydration, then extrusion through 200 nm filters. Liposome-based formulations were constructed using soy phosphatidylcholine, cholesterol, and DCD or α-GalCer in a 2:1:0.15 ratio. Twenty hours post-injection, blood was collected from the tail to measure the level of serum IFNγ using an ELISA kit from Biolegend. Four days post-injection, the mice were sacrificed and the spleenocytes were isolated. The percentage of iNKT cells within the spleens was measured using flow cytometry, selecting for live cells and mouse CD1d-α-GalCer tetramer+ cells.

Row | SMILES | average serum IFNγ compared to α-GalCer
27 | CCCCCCCCCCCCCCCCCC[Si](C)(C)CCCCCCC(=O)N[C@@H](COC1OC(CO)C(O)C(O)C1O)[C@H](O)[C@H](O)CCCCCCCCCCCCCC (stereo partly drawn) [DCD-152] | higher than the average serum IFNγ of C57BL/6J mice treated with α-GalCer

Test system: primary human iNKT cells
Test: Cytokine secretion of primary human iNKT cells co-cultured with drug-loaded BWSTIM cells
Format: cell-based
Conditions: BWSTIM loaded with 10 μg/mL; FIG. 3A
Method: In order to determine the activation profile induced by the compounds described herein, primary human iNKT cells were co-cultured with drug-loaded BWSTIM cells.
Day 0: PBMCs were isolated from human blood using the STEMCELL TECHNOLOGIES™ SepMate™ PBMC isolation system. iNKT cells were then selected using the Miltenyi NKT magnetic cell separation kit.
Day 2: DCD molecules or α-GalCer were both dissolved in DMSO at a 5 mg/mL stock solution. BWSTIM cells were fixed with mitomycin C, then loaded with 10 μg/mL of DCD molecules or α-GalCer for 4 hours at 37° C. at a concentration of 20 k cells/well in 200 μL of media in a u-bottom 96 well dish. Cells were co-cultured with 80 k 6B11+ selected primary human iNKT cells.
D4: Media was collected. Cytokines were measured using the Satorious 4Plex kit on the iQue3 cytometer.
GVK molecules or α-GalCer were both dissolved in DMSO at a 5 mg/mL stock solution. BWSTIM cells were loaded with compounds for 4 hours at 37° C. at a concentration of 20 k cells/well in 200 μL of media in a u-bottom 96 well dish. Cells were co-cultured with 100 k 6B11+ selected primary human iNKT cells. Media was collected 2 days later. Cytokines were measured using the Satorious 4Plex kit on the iQue3 cytometer.

Row | SMILES | IFNγ secretion compared to the no-compound control
28 | CCCCCCCCCCCCCC[C@@H](O)[C@@H](O)[C@H](COC1OC(CO)C(O)C(O)C1O)n1cc(CCCCCCN(CCCCCCC)CCCCCCC)nn1 (stereo partly drawn) [DCD-104] | significantly higher levels

Same assay, conditions: BWSTIM loaded with 10 μg/mL; FIG. 3B

Row | SMILES | IL6 secretion compared to the no-compound control
29 | CCCCCCCCCCCCCC[C@@H](O)[C@@H](O)[C@H](COC1OC(CO)C(O)C(O)C1O)n1cc(CCCCCCN(CCCCCCC)CCCCCCC)nn1 (stereo partly drawn) [DCD-104] | significantly higher levels

Same assay, conditions: BWSTIM loaded with 10 μg/mL; FIG. 3C

Row | SMILES | TNFα secretion compared to the no-compound control
30 | CCCCCCCCCCCCCC[C@@H](O)[C@@H](O)[C@H](COC1OC(CO)C(O)C(O)C1O)n1cc(CCCCCCN(CCCCCCC)CCCCCCC)nn1 (stereo partly drawn) [DCD-104] | significantly higher levels
